Assay results: patent US7582662B2, “Body weight gain inhibitor” (Takeda Pharmaceutical Company Limited, priority 2002, dated 2009)
Structures can show the parent of a compound that is named as a salt.

Columns and labels:
[1] = Body weight gain of obese mouse (compound A-mixed feed, 4 days); format: in vivo, male KKA^y mice; conditions: KKA^y mice, 10 week old, 0.005% compound A-mixed feed (about 6.5 mg/kg/day), mean±standard error, control 1.2±0.2 g, p<0.05
Procedure: Effect of 2-ethoxy-1-[[2′-(2,5-dihydro-5-oxo-1,2,4-oxadiazole-3-yl)biphenyl-4-yl]methyl]benzimidazole-7-carboxylic acid (Compound A) on Body Weight Gain of Obese Mouse
As the obese mouse, male KKA^y mice (10 week old) were used. The mice were grouped by measuring the body weight, and feeding of a CE-2 powdered feed (control)(n=7) and a 0.005% compound A-mixed feed (n=7) was started. At 4 days from feeding, the body weight was measured and the amount of the body weight gain was calculated. As the normal control, C57BL mice were used, and after feeding a CE-2 powdered feed for 4 days, whether the male KKA^y mice of the same age became obese was also examined.
The results are shown in mean±standard error. For the analysis of significance, Student's t-test was used. • 2) Results

[2] = Body weight gain induced by PPARγ agonist-like substance (pioglitazone) in obesity rats; format: in vivo, male Wistar fatty rats; conditions: Wistar fatty rats, 7 days
Procedure: Effect of Compound a on Body Weight Gain Induced by PPARγ Agonist-Like Substance (Pioglitazone) As the obesity rats, male Wistar fatty rats (16 week old) were used. The body weights were measured and the rats were grouped, after which a suspension of a drug in 0.5% methylcellulose solution was repeatedly and forcibly administered orally once a day for 7 consecutive days. After 24 hr from the final administration, the body weight was measured and the body weight gain was calculated. […] For the analysis of significance, Student's t-test was used. • 2) Results

[3] = patients with type II diabetes; Diabetes, 47, suppl. 1, A18, No. 69, 1998; cited from earlier work

CCOc1nc2cccc(C(=O)O)c2n1Cc1ccc(-c2ccccc2-c2nc(=O)o[nH]2)cc1 [compound A, 2-ethoxy-1-[[2′-(2,5-dihydro-5-oxo-1,2,4-oxadiazol-3-yl)biphenyl-4-yl]methyl]benzimidazole-7-carboxylic acid]
body weight gain during the test period [1]: 0.1 ± 0.4 g | amount of body weight gain ([2]; compound A 1 mg/kg/day p.o. together with PPARγ agonist-like substance (pioglitazone hydrochloride) 0.5 mg/kg/day p.o., p<0.05 vs single administration group): 19.3 ± 2.5 g

CCc1ccc(CCOc2ccc(CC3SC(=O)NC3=O)cc2)nc1 (stereo not shown) [pioglitazone hydrochloride]
amount of body weight gain ([2]; 0.5 mg/kg/day p.o. alone, mean±standard error, control 24.4±2.4 g, p<0.05): 30.8 ± 1.8 g

Cc1c(C)c2c(c(C)c1O)CCC(C)(COc1ccc(CC3SC(=O)NC3=O)cc1)O2 (stereo not shown) [troglitazone]
effect on body weight [3]: body weight gaining action
